Where two headings read alike, the source gives them in different places.

The results in this text go back to patent publication US20100248390A1, “COMPOSITIONS AND METHODS FOR IDENTIFYING LIGANDS OF ODORANT RECEPTORS” (DUKE UNIVERSITY, priority 2009, published 2010).

Test [1] deals with T1, human odorant receptors (ORs) (Homo sapiens, UniProt Q9Y3N9).
T1 construct: OR open reading frames were amplified from genomic DNA; expressed in transfected cells; host or cells: Hana3A cells, co-transfected with RTP1S, CRE-luciferase and pRL-SV40
T1 sequence (Q9Y3N9 1-320): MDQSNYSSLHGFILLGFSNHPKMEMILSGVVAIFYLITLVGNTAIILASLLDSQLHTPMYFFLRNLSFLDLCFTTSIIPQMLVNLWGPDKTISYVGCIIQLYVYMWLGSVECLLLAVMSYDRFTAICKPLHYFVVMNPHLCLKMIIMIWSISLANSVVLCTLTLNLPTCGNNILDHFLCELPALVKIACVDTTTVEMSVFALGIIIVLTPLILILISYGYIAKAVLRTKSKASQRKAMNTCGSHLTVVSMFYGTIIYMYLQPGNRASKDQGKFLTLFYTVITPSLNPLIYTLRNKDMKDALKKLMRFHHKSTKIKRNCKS
Nature of the test: CRE-luciferase assay of odorant receptor activation (Dual-Glo, Hana3A cells, RTP1S), dose-response EC50. In kind it is cell-based. The procedure, abridged: (§1)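 Hana3A cells were co-transfected with Rho-tagged OR, RTP1S, CRE-luciferase and pRL-SV40, then exposed to odorant in CD293 medium for 4 hrs at 37° C. Firefly luminescence was divided by Renilla and normalized as (LN−Lmin)/(Lmax−Lmin) per plate set. Each dose was tested at least three times, and EC50 came from sigmoidal fits.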

Test [2] deals with T2, human odorant receptors (ORs) (Homo sapiens, UniProt Q9P1Q5).
T2 construct: OR open reading frames were amplified from genomic DNA; expressed in transfected cells; host or cells: Hana3A cells, co-transfected with RTP1S, CRE-luciferase and pRL-SV40
T2 sequence (Q9P1Q5 1-309): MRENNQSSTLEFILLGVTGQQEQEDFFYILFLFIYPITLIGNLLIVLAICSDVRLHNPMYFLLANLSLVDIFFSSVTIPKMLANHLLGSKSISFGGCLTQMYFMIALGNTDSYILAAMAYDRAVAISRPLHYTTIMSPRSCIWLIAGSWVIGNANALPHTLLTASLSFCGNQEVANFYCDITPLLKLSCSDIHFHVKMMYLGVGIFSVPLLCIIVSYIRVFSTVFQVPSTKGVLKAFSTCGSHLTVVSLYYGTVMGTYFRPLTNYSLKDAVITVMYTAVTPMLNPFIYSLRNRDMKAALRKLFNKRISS
Described as above. In kind it is cell-based. The method in brief:
as §1

Where [3] appears, read: receptor OR2W1, 0 = no response.
Where [4] appears, read: receptor OR1A1, 0 = no response.
Setting [5] is: receptor OR2W1, 0 = no response, read-out: log EC50, OR2W1 (converted).
[6] abbreviates: receptor OR1A1, 0 = no response, read-out: log EC50, OR1A1 (converted).
Where [7] appears, read: receptor OR2W1, read-out: log EC50 (Table 4 value), OR2W1 (converted).
Where [8] appears, read: receptor OR1A1, read-out: log EC50 (Table 4 value), OR1A1 (converted).
Where [9] appears, read: receptor OR2W1, read-out: log EC50 of odorant at OR2W1 (0 = no response) (converted).
Setting [10] is: receptor OR1A1, read-out: log EC50 of odorant at OR1A1 (0 = no response) (converted).

As to `C=C(C)C1CC=C(C)C(=O)C1` (single isomer, unassigned; (-)) [(−)-Carvone], the “log EC50, OR2W1” value in test [1] (setting [3]) is on record as −4.657. The “log EC50, OR1A1” value in test [2] (setting [4]) was −5.765.

Turning to `CC(C)=CCCC(C)CCO` (single isomer, unassigned; (-)) [(−)-b-C ? inedol], the EC50 in test [1] (setting [5]) was 7.8 µM; in test [2] (setting [6]), 91.4 µM.

As for `CCCCCCCCCCO` [1-Decanol], the EC50 was 43.2 µM in test [1] and 828 µM in test [2].

In the case of `CCCCCCCO` [1-Heptanol], the results for the EC50 in test [1] (setting [5]) and in test [2] (setting [6]) were 14.8 µM and 971 µM, respectively.

Take `O=C1CCOc2ccccc21` [4-Chromanone]: the EC50 in test [1] (setting [7]) was 91 µM; in test [2] (setting [8]), 462 µM.

Turning to `C=C(C)[C@H]1CC=C(C)C(=O)C1` [(+)-Carvone], the “log EC50, OR2W1” value in test [1] (setting [3]) is listed as −4.646. Also, the “log EC50, OR1A1” value in test [2] (setting [4]) is listed as −5.035.

Take `C=C(C)[C@@H]1CC[C@@H](C)C(=O)C1` [(+)-Dihydrocarvone]: in test [1] (setting [3]), the “log EC50, OR2W1” value is on record as −4.755. The “log EC50, OR1A1” value in test [2] (setting [4]) is reported as −4.992.

For `CC(=O)c1ccccc1` [Acetophenone], the EC50 in test [1] (setting [7]) is 42.5 µM.

Consider `C=CCOC(=O)Cc1ccccc1` [Allyl phenylacetate], for which the EC50 in test [1] was 15.4 µM; in test [2] it was 7.6 µM.

For the compound `CC(=O)OCc1ccccc1` [Benzyl acetate], the EC50 in test [1] (setting [7]) was 16.4 µM; in test [2] (setting [8]), 406 µM.

In the case of `O=c1ccc2ccccc2o1` [Coumarin], the EC50 in test [1] (setting [7]) was 86.1 µM.

Regarding `CCCCCC1=C(C)CCC1=O` [Dihydroiasmone], the “log EC50 (Table 4 value), OR2W1” value in test [1] (receptor OR2W1) is given as −4.246. The “log EC50 (Table 4 value), OR1A1” value in test [2] (receptor OR1A1) is given as −7.242.

In the case of `CC(C)=CCC/C(C)=C/CO` [Getaniol], the concentration giving a half-maximal response (EC50) in test [1] (setting [7]) was 18.4 µM; in test [2] (setting [8]), 341 µM.

In the case of `CCCCCCCCCS` [Nonanethiol], the figures for the EC50 in test [1] (setting [9]) and in test [2] (setting [10]) were 86.1 µM and 571 µM, respectively.

With `CCCCCCCCC(=O)O` [Nonanoic acid], the EC50 in test [1] (setting [9]) is 189 µM.

With `CCCCCCCCS` [Octanethiol], the figures for the EC50 in test [1] (setting [9]) and in test [2] (setting [10]) were 92.7 µM and 594 µM, respectively.

With `CCCCCCCC(=O)O` [Octanoic Acid], the 50% effective concentration (EC50) in test [1] (setting [9]) was 14.2 µM.

For `CC(=O)Oc1ccccc1` [Phenyl acetate], the concentration for a half-maximal effect (EC50) in test [1] (setting [9]) is 84.9 µM.
